Data: ChEMBL document CHEMBL1138425, “Beta-secretase (BACE-1) inhibitors: accounting for 10s loop flexibility using rigid active sites” (Bioorg Med Chem Lett, 2007)

Molecular target: Beta-secretase 1 (Homo sapiens, UniProt P56817)
Experiment: Inhibition of BACE1

Chain of Beta-secretase 1 (P56817 whole entry): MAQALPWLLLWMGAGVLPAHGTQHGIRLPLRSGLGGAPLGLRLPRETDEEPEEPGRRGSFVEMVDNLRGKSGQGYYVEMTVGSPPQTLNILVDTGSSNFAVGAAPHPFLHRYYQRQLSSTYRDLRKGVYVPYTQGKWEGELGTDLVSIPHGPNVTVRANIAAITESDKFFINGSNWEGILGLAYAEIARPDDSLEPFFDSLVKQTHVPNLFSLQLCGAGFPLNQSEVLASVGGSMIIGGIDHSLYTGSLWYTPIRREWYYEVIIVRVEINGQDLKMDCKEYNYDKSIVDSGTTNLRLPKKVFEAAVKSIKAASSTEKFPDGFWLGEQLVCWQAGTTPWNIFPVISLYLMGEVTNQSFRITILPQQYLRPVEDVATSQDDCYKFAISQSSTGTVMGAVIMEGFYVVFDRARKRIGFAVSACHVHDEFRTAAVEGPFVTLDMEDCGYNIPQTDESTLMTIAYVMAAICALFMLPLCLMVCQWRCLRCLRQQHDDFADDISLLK

Structure (SMILES)	Ki (read-out: Ki) [µM]	Ki (read-out: Log Ki (converted)) [µM]
CC(C)C(=O)c1cc(-c2nnc([C@](C)(N)Cc3ccccc3)o2)cc(N(C)S(C)(=O)=O)c1	16.5	15.8
CCCN(c1cc(/C=C\C2CC2C)cc(-c2nnc([C@](C)(N)Cc3ccccc3)o2)c1)S(C)(=O)=O (some centres undefined)	0.0519	0.0501
